Experimental data as given in patent US8765123B1, “Compositions and methods for the treatment and prevention of infections caused by Staphylococcus aureus bacteria” (Rutgers, The State University of New Jersey, priority 2007, dated 2014).
“Also recorded” adds a separate entry of the source.

Tests used:
Type in all cases: cell-based, Staphylococcus aureus
[1] = test system: S. aureus Strain SH1000 biofilms; test: Detachment of pre-formed S. aureus biofilms in microtiter plate wells, crystal violet staining
Protocol: (§1) S. aureus Strain SH1000 (Horsburgh et al., 2002. J. Bacteriol. 184:5457-5467) was used in all of the following examples. The bacteria were passaged weekly on blood agar and stored at 4° C. Biofilms were cultured in Tryptic Soy broth (Becton-Dickinson, Sparks, Md.) containing 6 g of yeast extract and 8 g of glucose per liter (TSB medium). All cultures were incubated at 37° C.
A biofilm formation assay was carried out as follows. A loopful of cells from an agar plate was transferred to a polypropylene microcentrifuge tube containing 200 μl of TSB medium. The cells were crushed with a disposable pellet pestle, vortexed for 30 sec, diluted to 1 ml in fresh TSB medium, and then passed through a 5-μm pore-size syringe filter to remove large clumps of cells as previously described (Kaplan & Fine, 2002. Appl. Environ. Microbiol. 68:4943-4950). Filtered cells were diluted to 10^3-10^5 CFU/ml in TSB medium. Aliquots of cells (200 μl each) were transferred to the wells of a 96-well tissue-culture-treated polystyrene microtiter plate (Falcon no. 324662, Becton-Dickinson) and the plate was incubated for 24 h. The biofilms were rinsed once with water and then treated with 200 μl of deoxyribonuclease I (bovine deoxyribonuclease I, purchased from Sigma Chemical Company) at 100 μg/ml in 150 mM NaCl, 1 mM CaCl2. Control biofilms were treated with 200 μl of 150 mM NaCl, 1 mM CaCl2 alone. After 10 min at 37° C., biofilms were rinsed with water and then dried. Biofilms were stained for 1 min with 200 μl of Gram's crystal violet stain (catalog no. 23255960, Fisher Scientific, Fair Lawn, N.J.) and then rinsed with water and dried.
The concentration of deoxyribonuclease I was 100 μg/ml and the treatment time was 10 min. In this case, the amount of biofilm biomass remaining in the well was quantitated by measuring the A595 of the crystal violet stained biomass as described above, and the percent of biofilm cell detachment was calculated using the formula: 1−(A595[buffer+deoxyribonuclease I]/A595[buffer alone])×100.

SH1000 biofilms = test: Biofilm formation in 96-well microtiter plates in supplemented TSB medium, crystal violet A595
S. aureus SH1000 cells = test: Autoaggregation and biofilm formation in PET tubes with supplemented TSB medium; details: medium supplemented with 100 μg/ml, 16 h
Protocol: as §1
These experiments were carried out as described above, except that biofilms were grown in 16-mm×100-mm PET tubes (2 ml culture vol) in a rotary shaker for 16 h.

S. aureus biofilm cells = test: Killing of biofilm cells in microplate wells, CFU/well enumeration; details: 24-h biofilm; deoxyribonuclease I alone, 100 μg/ml for 10 min; FIG. 8
Protocol: Biofilms were grown for 24 h in 96-well microtiter plates as described above. Biofilms were rinsed once with water and then treated with 200 μl of TSB medium containing 100 μg/ml of deoxyribonuclease I. Control wells were treated with 200 μl of TSB medium alone. […] Control wells received 20 μl of water. […] This reaction was carried out in 100 μg/ml in 150 mM NaCl, 1 mM CaCl2 as described above. After 10 min, cells were mixed and then serial dilutions were plated on agar. For S. aureus biofilms treated with deoxyribonuclease I, cells were mixed and then a 50-μl aliquot of cells was diluted in 50 ml of phosphate buffered saline. The cells were passed through an analytical test filter funnel (no. 145-2020; Nalgene, Rochester, N.Y.), and the filter was rinsed with 250 ml of sterile water, aseptically removed from the filter unit, and placed on a blood agar plate. Colonies were enumerated after 24 h.

## deoxyribonuclease I
[1]; 24-h-old biofilm, 100 μg/ml, 10 min treatment, FIG. 1
  detachment of biofilm (crystal violet staining material remaining in the well): significant detachment of the biofilm; also recorded: nearly complete detachment
[1]; 24-h-old biofilm, 10 min treatment, FIG. 2
  concentration dependence of biofilm detachment (Absorbance at 595 nm): dependent on the deoxyribonuclease I concentration
[1]; 24-h-old biofilm, concentrations between 0.1 and 10 μg/ml, 10 min, FIG. 2
  detachment of biofilm (A595 of crystal violet): partial detachment
[1]; 24-h-old biofilm, concentrations greater than 10 μg/ml, 10 min, FIG. 2
  detachment of biofilm (A595 of crystal violet): near complete detachment
[1]; 24-h-old biofilm, concentrations less than 0.1 μg/ml, 10 min, FIG. 2
  detachment of biofilm (A595 of crystal violet): little detachment
[1]; biofilms grown for 5, 8, 12 or 24 h, 100 μg/ml, 10 min, FIG. 3
  detachment of biofilms of different age (percent of biofilm cell detachment from A595): capable of detaching; also recorded: significant detachment of all of the S. aureus biofilms, regardless of their age
SH1000 biofilms; increasing concentrations in medium, FIG. 7
  inhibition of biofilm formation (A595 of crystal violet stained biomass), concentration dependence: dependent on the deoxyribonuclease I concentration; also recorded: inhibited SH1000 biofilm formation in a dose-dependent manner
SH1000 biofilms; medium supplemented with 100 μg/ml, 24 h, FIG. 6
  biofilm colony morphology in microplate wells: incapable of forming distinct biofilm colonies; also recorded: formed a dense film that uniformly covered the microwell surface, but which readily detached after gentle rinsing
S. aureus SH1000 cells; FIG. 5
  biofilm formation in tubes at the air-liquid interface (crystal violet staining): much less biofilm formation; also recorded: inhibited biofilm formation at the air-liquid interface
S. aureus SH1000 cells; rotary shaker, FIG. 4
  autoaggregation (clumping) of cells: much less clumping; also recorded: formed smaller aggregates
S. aureus biofilm cells
  decrease in CFU/well values (killing of biofilm cells): resistant to killing; also recorded: did not exhibit a significant decrease
